In patent US20130267494A1, “1,4-OXAZEPANE DERIVATIVES” (priority 2010, published 2013):
Structures can show the parent of a compound that is named as a salt. Where two headings read alike, the source gives them in different places.

Columns and labels:
Format in all cases: cell-based
[1] = molecular target: T1, human serotonin transporter (Homo sapiens, UniProt P31645); assay: Inhibitory action on human serotonin transporter ([3H]-5-hydroxytryptamine uptake in CHO cells); conditions: relative to inhibitory activity of 10 μM Paroxetine as 100%; for inhibition at 1 µM / inhibitory rate (%): compound 1 μM
T1 construct: expressed in transfected cells
Outline: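 CHO-K1 cells stably expressing human SERT, plated overnight, took up [3H]-5-HT (diluted to 200 nM before a 1:10 addition) for 20 min in HEPES-buffered saline with glucose and 0.5% BSA; radioactivity counted by scintillation. Compounds at 10 μM or 1 μM, activity expressed relative to 10 μM paroxetine set as 100%.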

[2] = molecular target: T2, human dopamine transporter (Homo sapiens, UniProt Q01959); assay: Inhibitory action on human dopamine transporter ([3H]-dopamine uptake in CHO cells); conditions: relative to inhibitory activity of 100 μM Nomifensine as 100%
T2 construct: expressed in transfected cells
Outline: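 CHO-K1 cells stably expressing human dopamine transporter, exposed to compound at 10 μM or 1 μM in HEPES-buffered saline with 0.5% BSA. [3H]-dopamine uptake measured over 60 min by scintillation counting. Activity expressed relative to 100 μM nomifensine as 100%.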

[3] = molecular target: T3, human norepinephrine transporter (Homo sapiens, UniProt P23975); assay: Inhibitory action on human norepinephrine transporter ([3H]-norepinephrine uptake in CHO cells); conditions: relative to inhibitory activity of 10 μM DMI as 100%
T3 construct: expressed in transfected cells
Outline: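 Stably transfected CHO-K1 cells plated overnight, then given test compound and [3H]-norepinephrine (20 nM final, from 200 nM) in HEPES-buffered saline with 0.5% BSA for 45 min. After PBS washes, retained radioactivity counted by scintillation. Inhibition at 10 μM or 1 μM compound expressed relative to 10 μM DMI as 100%.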

[4] = CHO, read-out: inhibitory rate (%)
[5] = CHO, compound 1 μM, read-out: inhibitory rate (%)
[6] = CHO, read-out: inhibitory rate (%), compound 1 μM
[7] = CHO, compound 10 μM, read-out: inhibitory rate (%)

T3 sequence (P23975 whole entry): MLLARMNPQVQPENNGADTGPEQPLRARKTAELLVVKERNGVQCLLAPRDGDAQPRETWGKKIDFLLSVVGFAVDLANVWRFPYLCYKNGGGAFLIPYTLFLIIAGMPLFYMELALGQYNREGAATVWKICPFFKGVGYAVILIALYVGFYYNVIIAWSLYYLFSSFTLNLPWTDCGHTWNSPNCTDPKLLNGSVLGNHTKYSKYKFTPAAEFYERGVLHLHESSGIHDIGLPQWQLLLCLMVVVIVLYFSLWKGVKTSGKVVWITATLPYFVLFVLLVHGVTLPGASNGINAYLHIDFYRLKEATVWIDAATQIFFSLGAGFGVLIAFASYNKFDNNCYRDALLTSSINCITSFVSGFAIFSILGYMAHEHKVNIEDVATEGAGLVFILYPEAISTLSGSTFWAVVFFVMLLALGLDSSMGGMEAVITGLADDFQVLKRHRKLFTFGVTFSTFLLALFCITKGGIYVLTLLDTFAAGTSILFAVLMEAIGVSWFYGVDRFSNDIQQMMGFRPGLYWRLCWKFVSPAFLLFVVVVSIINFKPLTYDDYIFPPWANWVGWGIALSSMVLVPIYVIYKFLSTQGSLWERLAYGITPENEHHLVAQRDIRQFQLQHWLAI
T2 sequence (Q01959 whole entry): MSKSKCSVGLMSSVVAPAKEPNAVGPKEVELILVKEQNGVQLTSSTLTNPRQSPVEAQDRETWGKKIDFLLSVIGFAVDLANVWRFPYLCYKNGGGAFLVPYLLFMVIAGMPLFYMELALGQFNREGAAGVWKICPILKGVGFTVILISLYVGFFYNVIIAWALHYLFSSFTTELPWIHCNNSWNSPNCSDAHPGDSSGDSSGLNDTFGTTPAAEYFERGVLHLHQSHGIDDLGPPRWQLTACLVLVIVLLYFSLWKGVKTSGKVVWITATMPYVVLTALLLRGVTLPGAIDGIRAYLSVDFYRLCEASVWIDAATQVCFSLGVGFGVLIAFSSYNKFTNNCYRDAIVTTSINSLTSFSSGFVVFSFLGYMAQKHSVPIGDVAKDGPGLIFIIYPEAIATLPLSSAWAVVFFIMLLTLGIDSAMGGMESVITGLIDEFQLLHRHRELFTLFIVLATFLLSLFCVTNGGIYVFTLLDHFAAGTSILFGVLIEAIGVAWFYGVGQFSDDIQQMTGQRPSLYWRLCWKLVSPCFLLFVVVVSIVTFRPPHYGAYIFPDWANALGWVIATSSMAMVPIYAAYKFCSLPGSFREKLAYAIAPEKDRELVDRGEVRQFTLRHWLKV
T1 sequence (P31645 whole entry): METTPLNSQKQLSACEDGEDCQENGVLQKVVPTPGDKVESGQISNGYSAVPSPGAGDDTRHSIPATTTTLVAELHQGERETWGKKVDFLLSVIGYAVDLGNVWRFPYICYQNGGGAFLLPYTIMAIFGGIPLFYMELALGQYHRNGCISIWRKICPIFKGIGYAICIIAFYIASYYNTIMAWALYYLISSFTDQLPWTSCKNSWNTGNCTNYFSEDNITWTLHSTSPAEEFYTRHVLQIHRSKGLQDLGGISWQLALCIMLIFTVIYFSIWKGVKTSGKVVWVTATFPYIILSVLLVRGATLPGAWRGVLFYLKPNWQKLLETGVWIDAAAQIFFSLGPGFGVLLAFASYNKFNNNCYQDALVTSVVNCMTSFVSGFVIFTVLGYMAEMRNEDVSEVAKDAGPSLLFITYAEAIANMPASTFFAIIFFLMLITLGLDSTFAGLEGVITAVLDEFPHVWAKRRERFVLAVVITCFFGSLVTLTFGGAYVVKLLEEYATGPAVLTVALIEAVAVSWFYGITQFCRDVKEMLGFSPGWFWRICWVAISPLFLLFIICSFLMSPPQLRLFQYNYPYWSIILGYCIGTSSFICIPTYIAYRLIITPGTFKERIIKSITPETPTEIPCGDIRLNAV

Row | inhibition at 1 µM [1, 4] [%] | inhibition at 1 µM [2, 5] [%] | inhibition at 1 µM [3, 5] [%] | Compound | also measured
1 | 77 | 77 | 100 | OCC(O)(CO)[C@@H]1OCCNC[C@H]1c1ccc(Cl)c(Cl)c1 [Example 491, 2-[(6R,7R)-6-(3,4-dichlorophenyl)-1,4-oxazepan-7-yl]propane-1,2,3-triol monohydrochloride] | 
2 | 94 | 100 | 103 | Cc1nnc(-c2cccnc2O[C@@H]2CNCCO[C@H]2c2ccc(Cl)c(F)c2)[nH]1 [Example 568, (6R,7S)-7-(4-chloro-3-fluorophenyl)-6-{[3-(5-methyl-4H-1,2,4-triazol-3-yl)pyridin-2-yl]oxy}-1,4-oxazepane monohydrochloride] | 
3 | 74 | 7 | 98 | O=C1CNC(=O)N1C[C@@]1(c2ccc(Cl)c(Cl)c2)CCNCCO1 [Example 439, 3-{[(7S)-7-(3,4-dichlorophenyl)-1,4-oxazepan-7-yl]methyl}imidazolidine-2,4-dione monohydrochloride] | 
4 | 66 | 91 | 103 | O=S(=O)(NC[C@H]1OCCNC[C@H]1c1ccc(Cl)c(Cl)c1)C(F)F [Example 470, N-{[(6R,7S)-6-(3,4-dichloropheny))-1,4-oxazepan-7-yl]methyl}-1,1-difluoromethanesulfonamide monohydrochloride] | 
5 | 85 | 18 | 100 | OCCOC[C@@]1(c2ccc(Cl)c(Cl)c2)CCNCCO1 [Example 416, 2-{[(7S)-7-(3,4-dichlorophenyl)-1,4-oxazepan-7-yl]methoxy}ethanol monohydrochloride] | 
6 | 28 | 7 | 88 | OC[C@@H]1OCCNC[C@@H]1c1ccc(Cl)c(Cl)c1 [Example 448, [(6S,7R)-6-(3,4-dichlorophenyl)-1,4-oxazepan-7-yl]methanol monohydrochloride] | 
7 |  | 10 | 105 | OCC1CNCCOC1c1ccc(Cl)c(F)c1 (stereo not drawn) [Example 440, [(6R*,7R*)-7-(4-chloro-3-fluorophenyl)-1,4-oxazepan-6-yl]methanol monohydrochloride (retention time short)] | inhibitory rate (%) [1]: 93%
8 | 91 | 32 | 103 | OC[C@H]1CNCCO[C@@H]1c1cc2ccccc2s1 (racemic) [Example 410, [(6RS,7SR)-7-(1-benzothiophen-2-yl)-1,4-oxazepan-6-yl]methanol monohydrochloride] | 
9 | 61 | 49 | 96 | OC[C@@H](O)[C@H]1OCCNC[C@H]1c1ccc(Cl)c(Cl)c1 [Example 579, (1R)-1-[(6R, 7S)-6-(3,4-dichloro-phenyl)-1,4-oxazepan-7-yl]ethane-1,2-diol] | 

Continued, compound first:

Row | Compound | inhibition at 1 µM [1, 4] [%] | inhibition at 1 µM [2, 5] [%] | inhibition at 1 µM [3, 5] [%] | also measured
10 | O=c1[nH]c(-c2cccnc2O[C@H]2CNCCOC2c2ccc(Cl)c(Cl)c2)no1 (mixture of isomers) [Example 236, 3-(2-{[(6RS,7SR)-7-(3,4-dichlorophenyl)-1,4-oxazepan-yl]oxy}pyridin-3-yl)-1,2,4-oxadiazol-5(4H)-one monohydrochloride] | 92 | 93 | 105 | 
11 | OC[C@H]1CNCCO[C@@H]1c1ccc(Cl)c(F)c1 [Example 302, [(6R,7S)-7-(4-chloro-3-fluorophenyl)-1,4-oxazepan-6-yl]methanol monohydrochloride] | 73 | 12 | 98 | 
12 | CS(=O)(=O)N[C@@H]1CNCCO[C@H]1c1ccc(Cl)c(Cl)c1 [Example 265, N-[(6R,7S)-7-(3,4-dichlorophenyl)-1,4-oxazepan-6-yl]methanesulfonamide monohydrochloride] | 79 | 72 | 102 | 
13 | CC(=O)N[C@@H]1CNCCO[C@@H]1c1ccc(Cl)c(Cl)c1 (racemic) [Example 62, N-[(6RS,7RS)-7-(3,4-dichlorophenyl)-1,4-oxazepan-6-yl]acetamide monohydrochloride] | 98 | 64 | 100 | 
14 | OC[C@H]1CNCCO[C@@H]1c1ccc(Cl)c(Cl)c1 [Example 73, [(6R,7S)-7-(3,4-dichlorophenyl)-1,4-oxazepan-6-yl]methanol monohydrochloride] | 97 | 64 |  | inhibition at 1 µM [3, 6]: 98%
15 | OC[C@@H]1CNCCO[C@@H]1c1ccc(F)c(Cl)c1 (racemic) [Example 278, [(6RS,7RS)-7-(3-chloro-4-fluorophenyl)-1,4-oxazepan-6-yl]methanol monohydrochloride] | 87 | 13 | 91 | 
16 | COC1(c2ccc(Cl)c(Cl)c2)CNCCOC1 (racemic) [Example 17, (6RS)-6-(3,4-dichlorophenyl)-6-methoxy-1,4-oxazepane monohydrochloride] | 70 | 19 | 75 | inhibition at 10 µM ([1]; CHO, compound 10 μM, CHO cells expressing human serotonin transporter, read-out: inhibitory rate (%)): 96%; inhibition at 10 µM [2, 7]: 53%; inhibition at 10 µM [3, 7]: 97%
17 | OCC1CNCCOC1c1ccc(Cl)c(Cl)c1 (stereo not drawn) [Example 49, [(6R*,7R*)-7-(3,4-dichlorophenyl)-1,4-oxazepan-6-yl]methanol monohydrochloride (retention time long)] |  |  |  | inhibitory rate (%) [1]: 87%; inhibitory rate (%) ([2]; compound 1 μM): 41%; inhibitory rate (%) ([3]; compound 1 μM): 98%
18 | NS(=O)(=O)NC[C@@H]1CNCCO[C@H]1c1ccc(Cl)c(Cl)c1 [Example 35, N-{[(6S,7R)-7-(3,4-dichlorophenyl)-1,4-oxazepan-6-yl]methyl}sulfamide monohydrochloride] | 86 | 63 | 99 | 
19 | O=C(CO)NC[C@@H]1CNCCO[C@H]1c1ccc(Cl)c(F)c1 [Example 315, N-{[(6S,7R)-7-(4-chloro-3-fluorophenyl)-1,4-oxazepan-6-yl]methyl}-2-hydroxyacetamide monohydrochloride] | 43 | 13 | 105 | 
20 | O=C(NC[C@@H]1CNCCO[C@H]1c1ccc(Cl)c(Cl)c1)c1ccccc1 [Example 126, N-{[(6S,7R)-7-(3,4-dichlorophenyl)-1,4-oxazepan-6-yl]methyl}benzamide monohydrochloride] | 97 | 27 | 103 | 
21 | O=c1ccccn1C[C@@H]1CNCCO[C@H]1c1ccc(Cl)c(F)c1 [Example 42, 1-{[(6S,7R)-7-(4-chloro-3-fluorophenyl)-1,4-oxazepan-6-yl]methyl}pyridin-2(1H)-one monohydrochloride] | 87 | 47 | 102 | 
22 | O=c1[nH]c(-c2csc(C[C@@H]3CNCCO[C@H]3c3ccc(Cl)c(Cl)c3)n2)no1 [Example 199, 3-(2-{[(6R,7R)-7-(3,4-dichlorophenyl)-1,4-oxazepan-6-yl]methyl}-1,3-thiazol-4-yl)-1,2,4-oxadiazol-5(4H)-one monohydrochloride] | 100 | 66 | 99 | 
23 | CCNC(=O)NC[C@@H]1CNCCO[C@@H]1c1ccc(Cl)c(Cl)c1 (racemic) [Example 52, 1-{[(6RS,7RS)-7-(3,4-dichlorophenyl)-1,4-oxazepan-6-yl]methyl}-3-ethylurea monohydrochloride] | 99 | 29 | 97 | 
24 | CS(=O)(=O)C[C@H]1CNCCO[C@@H]1c1ccc(Cl)c(Cl)c1 [Example 93, (6S,7S)-7-(3,4-dichlorophenyl)-6-[(methylsulfonyl)methyl]-1,4-oxazepane monohydrochloride] | 97 | 96 | 96 | 
25 | O=c1[nH]c(-c2ccnn(C[C@@H]3CNCCO[C@H]3c3ccc(Cl)c(Cl)c3)c2=O)no1 [Example 209, 2-{[(6S,7R)-7-(3,4-dichlorophenyl)-1,4-oxazepan-6-yl]methyl}-4-(5-oxo-4,5-dihydro-1,2,4-oxadiazol-3-yl)pyridazin-3(2H)-one monohydrochloride] | 97 | 71 |  | inhibition at 1 µM [3, 6]: 101%
26 | O=C(O)c1ccnn1C[C@@H]1CNCCO[C@H]1c1ccc(Cl)c(Cl)c1 [Example 181, 1-{[(6S,7R)-7-(3,4-dichlorophenyl)-1,4-oxazepan-6-yl]methyl}-1H-pyraole-5-carboxylic acid monohydrochloride] | 87 | 39 | 100 | 
